Data on two molecules can be found in patent publication US10485772B2, “Compositions for modulating cancer stem cells and uses therefor” (University of Canberra, priority 2014, dated 2019).

Common to all, as to type: cell-based, human
The subject of test [1] is laminin-5, uPAR and CD44 transcripts in MCF-7 cells. The test is described as follows: TaqMan real time PCR transcript analysis of EMT/CSC genes in MCF-IM model. As to the method: For most of the experiments, total RNA was extracted from 5×10^5 to 1×10^6 MCF-7 cells unless otherwise specified. Cells were first thawed in 1 mL of Trizol® Reagent (Invitrogen, Carlsbad, Calif.) for 5 minutes at room temperature to inactivate RNases, followed by trituration to dislodge the cell pellet. The dissociated cells suspended in Tizol (1 mL) were transferred into a 1.5 mL Eppendorf tube for 5 minutes for homogenization. RNA was then extracted by addition of 200 μL chloroform and mixing was done vigorously before centrifuging the samples at 8,000×g for 30 minutes at 4° C. The aqueous layer was then collected into a fresh 1.5 mL Eppendorf tube and an equal volume of isopropanolol was added to the aqueous layer and mixed gently. After 5 minutes at room temperature, samples were either snap frozen on dry ice and stored at −70° C. overnight or until the isolation procedure could be re-commenced. After thawing the samples quickly, the samples were again centrifuged at 8,000×g for 30 minutes at 4° C. to precipitate the RNA. To remove all traces of isopropanolol, next the RNA pellets were washed with 1 mL of ice cold 80% ethanol (Analytical UNIVAR, Seattle, Wash.) before centrifuging at 3,600×g for 10 minutes at 4° C. All ethanol then was removed and pellets were allowed to air dry for 5 minutes. RNA samples were then solubilized by re-suspending them in 50 μL of nuclease-free DEPC (Diethylpyrocarbonate treated) water (Ambion, VIC, Australia). Next, 2 μL of the sample was taken out to measure RNA quality and quantity on Nano-drop® Spectrophotometer ND 1000 (Nanodrop Technologies, Inc., Wilmington, Del., USA) using ND-1000 V3.30 software. All the RNA samples were found pure as they had A260/A280 ratio of 1.9-2.1 and this ratio provides an estimate of RNA purity with respect to contaminants such as proteins that absorb in the UV spectrum.
Superscript™® III kit (Invitrogen, Carlsbad, Calif.) was used for cDNA synthesis. Master mix-1 was prepared by adding 1 μL of 5 μM oligo (dT) and 1 μL of 100 mM dNTPs and mixed by flicking. Mastermix-2 was prepared by adding 2 μL of RT buffer, 2 μL of 3 mM mgCl2, 2 μL of DTT mix, 1 μL of RNAse out, 1 μL of superscript III and mixed by flicking. For 1 μg RNA, 2 μL of the master mix-1 was added to the samples, mixed and incubated at 65° C. for 5 minutes and then samples were placed on ice to stop the reaction. This step was followed by addition of 10 μL of the master mix-2 per sample and incubation of samples at 50° C. for 50 minutes. The reaction was then stopped by incubating samples at 85° C. for 5 minutes followed by placing the samples on the ice for 2 minutes. […] All the samples were either snap frozen on dry ice or used immediately for quantitative Real-Time PCR analysis. […]
(In general: In qPCR the cycle at which signal appears reflects the starting amount.)

The test system of test [2] is MCF-7 cells. The test is described as follows: EMT assay by phase contrast microscopy in MCF-IM model. The conditions noted are these: MCF-IM model; for EMT (morphology): bisindolylmaleimide 1 μM, 1 hr pre-treatment before PMA for 60 hrs. As to the method: EMT assays were performed in 24-well plates (Costar, Corning Inc., Corning, N.Y., USA). For this assay, usually MCF-7 cells were seeded at 4×10^4/well/500 μL media one day before the experiment unless otherwise specified. Cells were stimulated with various EMT stimuli prepared in warm media the following day and monitored for EMT changes under the microscope specified below. The percentage of EMT was generally calculated based on phenotype counting 100 cells per field under the microscope. All the potential EMT stimuli used herein are described in Table 6 and they were prepared and stored as per supplier specification.
(§1) Phase contrast microscopy was utilized for EMT and wound healing assays under 10× or 20× magnification of Olympus Fluorescence 1X71 microscope. Images were captured and analyzed as described above except that wound healing assay pictures were also analyzed by Image J software (Free software in Public domain developed by NIH).
The adherent human mammary adenocarcinoma MCF-7 and MDA-MB-231 cells were cultured in low glucose DMEM (Gibco) and both supplemented with 10% FCS, 2 mM L-glutamine and 0.1% PSN antibiotics. […] For Bisindolylmaleimide-I (Calbiochem) or PKC-θ peptide inhibitor (Calbiochem) studies, cells were pre-treated with 1 μM or 30 μM of inhibitor respectively for 1 h prior to stimulation in MCF-7 cells. In case of MDA-MB-231, cells were treated with 4 μM or 30 μM Bisindolylmaleimide-I or PKC-θ peptide inhibitor respectively.
(§2) phase contrast microscopy was performed where cells were viewed at ×4 magnification (wound healing assay) or ×10 magnification (EMT) using an Olympus fluorescence IX71 microscope (Olympus) and images were captured using DPController software (2002 Olympus Optical Co. LTD) and analyzed using Photoshop CS3 (Adobe Systems Inc.). Scans were taken with a 10 μm scale bar.

In test [3] the test system is MDA-MB 231 cells. The test is described as follows: Phase contrast microscopy of EMT/MET in Basal/metastatic model. The conditions noted are these: Bisindolylmaleimide 4 μM. How it is done:
as §1
The adherent human mammary adenocarcinoma MCF-7 and MDA-MB-231 cells were cultured in low glucose DMEM (Gibco) and both supplemented with 10% FCS, 2 mM L-glutamine and 0.1% PSN antibiotics. Cells were stimulated with 0.65 ng/ml of phorbol 12-myristate 13-acetate (PMA) (Sigma-Aldrich) or 20 ng/ml of TGF-β (R&D systems) for the times indicated. For Bisindolylmaleimide-I (Calbiochem) or PKC-θ peptide inhibitor (Calbiochem) studies, cells were pre-treated with 1 μM or 30 μM of inhibitor respectively for 1 h prior to stimulation in MCF-7 cells. In case of MDA-MB-231, cells were treated with 4 μM or 30 μM Bisindolylmaleimide-I or PKC-θ peptide inhibitor respectively.
as §2

Test [4] deals with laminin-5, uPAR and CD44 transcripts in MDA-MB 231 cells. The test is described as follows: TaqMan real time PCR transcript analysis of EMT/CSC genes in basal/metastatic model. The conditions noted are these: bisindolylmaleimide-I 4 μM. As to the method: For most of the experiments, total RNA was extracted from 5×10^5 to 1×10^6 MCF-7 cells unless otherwise specified. Cells were first thawed in 1 mL of Trizol® Reagent (Invitrogen, Carlsbad, Calif.) for 5 minutes at room temperature to inactivate RNases, followed by trituration to dislodge the cell pellet. The dissociated cells suspended in Tizol (1 mL) were transferred into a 1.5 mL Eppendorf tube for 5 minutes for homogenization. RNA was then extracted by addition of 200 μL chloroform and mixing was done vigorously before centrifuging the samples at 8,000×g for 30 minutes at 4° C. The aqueous layer was then collected into a fresh 1.5 mL Eppendorf tube and an equal volume of isopropanolol was added to the aqueous layer and mixed gently. After 5 minutes at room temperature, samples were either snap frozen on dry ice and stored at −70° C. overnight or until the isolation procedure could be re-commenced. […] Next, 2 μL of the sample was taken out to measure RNA quality and quantity on Nano-drop® Spectrophotometer ND 1000 (Nanodrop Technologies, Inc., Wilmington, Del., USA) using ND-1000 V3.30 software. […]
Superscript™® III kit (Invitrogen, Carlsbad, Calif.) was used for cDNA synthesis. […] All the samples were either snap frozen on dry ice or used immediately for quantitative Real-Time PCR analysis. […]

The mark [5] stands for this setting: listed as Broad spectrum PKC pathway inhibitor.

Regarding `CN(C)CCCn1cc(C2=C(c3c[nH]c4ccccc34)C(=O)NC2=O)c2ccccc21` [bisindolylmaleimide-I], the “transcription of key inducible EMT/CSC genes (laminin-5, uPAR, CD44)” value was “cannot inhibit transcription of key inducible EMT/CSC genes” in test [1] (bisindolylmaleimide-I 100 nM for 1 hour prior to PMA); “inhibits transcription of key inducible EMT/CSC genes” in test [1] (bisindolylmaleimide-I 1 μM for 1 hour prior to PMA); “inhibition of EMT and CSC formation” in test [1] (bisindolylmaleimide-I 1 μM for 1 hour prior to PMA, listed as Broad spectrum PKC pathway inhibitor); “inhibits transcription of key inducible EMT/CSC genes” in test [4]; “inhibition of EMT and CSC formation” in test [4] (setting [5]). Besides, the “EMT (morphology)” value in test [2] is “inhibits EMT”; in test [2] (setting [5]) it was “inhibition of EMT and CSC formation”; in test [3], “inhibits EMT”; in test [3] (setting [5]), “inhibition of EMT and CSC formation”.
`Cn1c2ccccc2c2c3c(c4c5ccccc5n(CCC#N)c4c21)CNC3=O` [Go6976]: the “transcription of key inducible EMT/CSC genes (laminin-5, uPAR, CD44)” value in test [1] (Go6976 1 μM for 1 hour prior to PMA) was “failed to inhibit transcription of key inducible EMT/CSC genes”. The “PMA-induced EMT-like morphological changes” value in test [2] (pre-incubation with Go6976) was “did not prevent PMA-induced EMT-like morphological changes or CSC formation”.
